In PubChem BioAssay AID1963844 (Molecular Pharmacology Branch, DTP, NCI, 2024):

Test system: 422866-222-R5-J1-PDC complex spheroid viability
Assay: Anticancer human tumor 422866-222-R5-J1-PDC patient-derived pancreatic adenocarcinoma cell line growth inhibition [POLQ]
Details: for IC50: curve of first compound; for viability, T/C: stronger effect = lower value
Procedure, shortened: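 PDC + HUVEC + MSC complex spheroids; POLQ inhibitors ± partner drugs; top conc. at/near clinical Cmax, else 10 microM (SN-38 1 microM), half-log dilutions; 37 degrees C, 5% CO2.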

[1] = second compound 0.0316 µM, first compound 0.0316 µM
[2] = second compound 0.0316 µM, first compound 0.1 µM
[3] = second compound 0.0316 µM, first compound 0.316 µM
[4] = second compound 0.0316 µM, first compound 1 µM
[5] = second compound 0.0316 µM, first compound 3.16 µM
[6] = second compound 0.0316 µM, first compound 10 µM
[7] = second compound 0.1 µM, first compound 0.0316 µM
[8] = second compound 0.1 µM, first compound 0.1 µM
[9] = second compound 0.1 µM, first compound 0.316 µM
[10] = second compound 0.1 µM, first compound 1 µM
[11] = second compound 0.1 µM, first compound 3.16 µM
[12] = second compound 0.1 µM, first compound 10 µM
[13] = second compound 0.316 µM, first compound 0.0316 µM
[14] = second compound 0.316 µM, first compound 0.1 µM
[15] = second compound 0.316 µM, first compound 0.316 µM
[16] = second compound 0.316 µM, first compound 1 µM
[17] = second compound 0.316 µM, first compound 3.16 µM
[18] = second compound 0.316 µM, first compound 10 µM
[19] = second compound 1 µM, first compound 0.0316 µM
[20] = second compound 1 µM, first compound 0.1 µM
[21] = second compound 1 µM, first compound 0.316 µM
[22] = second compound 1 µM, first compound 1 µM
[23] = second compound 1 µM, first compound 3.16 µM
[24] = second compound 1 µM, first compound 10 µM
[25] = second compound 3.16 µM, first compound 0.0316 µM
[26] = second compound 3.16 µM, first compound 0.1 µM
[27] = second compound 3.16 µM, first compound 0.316 µM
[28] = second compound 3.16 µM, first compound 1 µM
[29] = second compound 3.16 µM, first compound 3.16 µM
[30] = second compound 3.16 µM, first compound 10 µM
[31] = second compound 10 µM, first compound 0.0316 µM
[32] = second compound 10 µM, first compound 0.1 µM
[33] = second compound 10 µM, first compound 0.316 µM
[34] = second compound 10 µM, first compound 1 µM
[35] = second compound 10 µM, first compound 3.16 µM
[36] = second compound 10 µM, first compound 10 µM
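Note: spheroids exposed to compounds for one week before readout.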
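Throughout, for viability, T/C: percent of DMSO vehicle wells luminescence so 100% = untreated viability.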

Which IC50 (second compound 0.0316 µM) does the source give for `CCc1cc2c(N3CCc4c(cc(Cn5ccnc5)cc4-c4cn(C)nc4C(F)(F)F)C3=O)ccnc2c(OC)n1` + Nc1ccc(C#CCN(C(=O)Cc2ncc(C(F)(F)F)cc2C(F)(F)F)c2ccc(F)cc2)nn1 here?
Its IC50 is greater than 10 µM.

And the IC50 (second compound 0.1 µM)?
Its IC50 is greater than 10 µM.

And the IC50 (second compound 0.316 µM)?
Its IC50 is greater than 10 µM.

And the IC50 (second compound 1 µM)?
The IC50 was greater than 10 µM.

And the IC50 (second compound 3.16 µM)?
The IC50 was greater than 10 µM.

And the IC50 (second compound 10 µM)?
Its IC50 is greater than 10 µM.

And the viability, T/C [1]?
The viability, T/C was 82.5%.

And the viability, T/C [2]?
The viability, T/C was 102%.

And the viability, T/C [3]?
Its viability, T/C is 103%.

What about the viability, T/C [4] of the same molecule?
The viability, T/C was 119%.

And the viability, T/C [5]?
Its viability, T/C is 89.2%.

What about the viability, T/C [6] of the same molecule?
The viability, T/C was 126%.

And the viability, T/C [7]?
Its viability, T/C is 79.7%.

What about the viability, T/C [8] of the same molecule?
Its viability, T/C is 103%.

And the viability, T/C [9]?
Its viability, T/C is 112%.

And the viability, T/C [10]?
The viability, T/C was 109%.

And the viability, T/C [11]?
The viability, T/C was 95.6%.

What about the viability, T/C [12] of the same molecule?
Its viability, T/C is 120%.

What about the viability, T/C [13] of the same molecule?
Its viability, T/C is 85.7%.

And the viability, T/C [14]?
Its viability, T/C is 85.2%.

What about the viability, T/C [15] of the same molecule?
The viability, T/C was 79.5%.

What about the viability, T/C [16] of the same molecule?
Its viability, T/C is 128%.

What about the viability, T/C [17] of the same molecule?
The viability, T/C was 98.9%.

And the viability, T/C [18]?
The viability, T/C was 98.3%.

What about the viability, T/C [19] of the same molecule?
Its viability, T/C is 82.8%.

And the viability, T/C [20]?
Its viability, T/C is 77.3%.

And the viability, T/C [21]?
Its viability, T/C is 107%.

What about the viability, T/C [22] of the same molecule?
Its viability, T/C is 101%.

What about the viability, T/C [23] of the same molecule?
Its viability, T/C is 113%.

And the viability, T/C [24]?
Its viability, T/C is 107%.

What about the viability, T/C [25] of the same molecule?
The viability, T/C was 102%.

What about the viability, T/C [26] of the same molecule?
Its viability, T/C is 90.7%.

What about the viability, T/C [27] of the same molecule?
The viability, T/C was 92%.

What about the viability, T/C [28] of the same molecule?
Its viability, T/C is 92.7%.

What about the viability, T/C [29] of the same molecule?
Its viability, T/C is 114%.

And the viability, T/C [30]?
The viability, T/C was 115%.

What about the viability, T/C [31] of the same molecule?
The viability, T/C was 92.8%.

What about the viability, T/C [32] of the same molecule?
Its viability, T/C is 115%.

And the viability, T/C [33]?
The viability, T/C was 93.7%.

And the viability, T/C [34]?
Its viability, T/C is 102%.

And the viability, T/C [35]?
The viability, T/C was 110%.

And the viability, T/C [36]?
The viability, T/C was 106%.

What does the source list for `COc1cc2cc(C(=O)CCC(=O)O)sc2cc1OC` + Nc1ccc(C#CCN(C(=O)Cc2ncc(C(F)(F)F)cc2C(F)(F)F)c2ccc(F)cc2)nn1?
IC50 (second compound 0.0316 µM): > 10 µM; IC50 (second compound 0.1 µM): > 10 µM; IC50 (second compound 0.316 µM): > 10 µM; IC50 (second compound 1 µM): > 10 µM; IC50 (second compound 3.16 µM): > 10 µM; IC50 (second compound 10 µM): > 10 µM; viability, T/C [1]: 84%; viability, T/C [2]: 97.2%; viability, T/C [3]: 94.5%; viability, T/C [4]: 115%; viability, T/C [5]: 81.2%; viability, T/C [6]: 89.1%; viability, T/C [7]: 87.3%; viability, T/C [8]: 89.9%; viability, T/C [9]: 87.5%; viability, T/C [10]: 95.3%; viability, T/C [11]: 84%; viability, T/C [12]: 103%; viability, T/C [13]: 112%; viability, T/C [14]: 104%; viability, T/C [15]: 86.4%; viability, T/C [16]: 90.8%; viability, T/C [17]: 86.2%; viability, T/C [18]: 109%; viability, T/C [19]: 99.6%; viability, T/C [20]: 87.1%; viability, T/C [21]: 86.9%; viability, T/C [22]: 84.5%; viability, T/C [23]: 94.2%; viability, T/C [24]: 136%; viability, T/C [25]: 108%; viability, T/C [26]: 98.6%; viability, T/C [27]: 95%; viability, T/C [28]: 94.9%; viability, T/C [29]: 92.2%; viability, T/C [30]: 111%; viability, T/C [31]: 98%; viability, T/C [32]: 91.4%; viability, T/C [33]: 93.5%; viability, T/C [34]: 89.9%; viability, T/C [35]: 100%; viability, T/C [36]: 104%

Which results are given for `COc1ccc([C@@H](O)c2cc(-c3ncnc4cc(N5CCOCC5)ccc34)c(F)cc2Cl)nn1` + Nc1ccc(C#CCN(C(=O)Cc2ncc(C(F)(F)F)cc2C(F)(F)F)c2ccc(F)cc2)nn1?
IC50 (second compound 0.0316 µM): 1.51 µM; IC50 (second compound 0.1 µM): 2.57 µM; IC50 (second compound 0.316 µM): 2.74 µM; IC50 (second compound 1 µM): 1.93 µM; IC50 (second compound 3.16 µM): 1.28 µM; IC50 (second compound 10 µM): 1.59 µM; viability, T/C [1]: 81.2%; viability, T/C [2]: 89.7%; viability, T/C [3]: 70.9%; viability, T/C [4]: 55.3%; viability, T/C [5]: 42.4%; viability, T/C [6]: 34.8%; viability, T/C [7]: 104%; viability, T/C [8]: 81.8%; viability, T/C [9]: 75.1%; viability, T/C [10]: 59.8%; viability, T/C [11]: 46.2%; viability, T/C [12]: 39.2%; viability, T/C [13]: 110%; viability, T/C [14]: 88.5%; viability, T/C [15]: 73.1%; viability, T/C [16]: 70.6%; viability, T/C [17]: 46.2%; viability, T/C [18]: 33.1%; viability, T/C [19]: 94.2%; viability, T/C [20]: 87.4%; viability, T/C [21]: 79.8%; viability, T/C [22]: 62.6%; viability, T/C [23]: 40.2%; viability, T/C [24]: 29.4%; viability, T/C [25]: 95.9%; viability, T/C [26]: 89.9%; viability, T/C [27]: 72.9%; viability, T/C [28]: 49.1%; viability, T/C [29]: 47.6%; viability, T/C [30]: 34.6%; viability, T/C [31]: 110%; viability, T/C [32]: 100%; viability, T/C [33]: 82.5%; viability, T/C [34]: 60.3%; viability, T/C [35]: 35.1%; viability, T/C [36]: 31.4%
